The values that follow come from patent publication US4652554A, “Nitro-substituted 1-β-D-arabinofuranosylcytosines” (St. Jude Children's Research Hospital, priority 1982, dated 1987).

Like-named read-outs stand apart in the source and are kept apart here.

The term IC50 denotes the concentration that inhibits the measured activity by half.

One data set deals with Cytidine deaminase (Mus musculus, UniProt P56389). The experiment in a line: Substrate specificity of cytidine deaminase (spectrophotometric deamination assay). It counts as biochemical. The note with it: for Relative initial rate of deamination: 2.5×10^-4 M substrate, 1.3 mg enzyme protein, pH 7.0, 37° C., cytidine = 100. The procedure:
Thus, mouse kidney acetone powder (3 g. obtained from Sigma Chemical Co., St. Louis, Mo.) was extracted at 55°-60° C. for 5 minutes with phosphate buffer (pH 8.0, 0.05M). The extract was filtered through four layers of guaze bandage, and the remaining colloidal materials were removed by centrifugation at 20,000 g. for 10 minutes. The supernatant was then filtered through a Nalgene filter unit (0.45 μm grid membrane) to give a clear yellowish filtrate that was adjusted to 40% saturation by the addition of solid ammonium sulfate (24 g/100 ml. of filtrate) with stirring at room temperature, and stirring was continued for 30 minutes. After removal of the precipitate by centrifugation (20,000 g. for 30 minutes), the active supernatant was adjusted to 70% saturation by further addition of ammonium sulfate (24 g/100 ml of supernatant). The resulting precipitate, recovered by centrifugation (20,000 g. for 30 minutes), was dissolved in 4 ml. of phosphate buffer (pH 7.0, 0.05M) and dialyzed twice against 2 liters of the same buffer.
Protein content was determined by Bio-Rad Protein Assay. […] All reaction mixtures contained 2.5×10^-4 M of substrate and 1.3 mg of enzyme protein in a final volume of 1.0 ml. of phosphate buffer (pH 7.0, 0.05M).

The next data set deals with murine leukemia L1210. Briefly: In vivo L1210 leukemia cell number in peritoneal cavity 24 h after single i.p. dose. Further details: species or system murine (B6D2F1/J female mice). As to conditions: 720 mg/kg i.p., 24 hours after treatment (day 6). The procedure:
1-(2-O-Nitro-β-D-arabinofuranosyl)cytosine (nitrara-C) is a powerful anti-neoplastic agent particularly against the leukemias.
B6D2F1 /J female mice weighing ~20 g. were inoculated intraperitoneally with 1×10^5 cells of the murine leukemia, L1210. Five days later, the leukemia cells were washed from the peritoneal cavities of untreated mice, and baseline counts were made. Concomitantly, other groups of mice were treated i.p. with either ara-C.HCl or nitrara-C.HCl. Each drug was administered at a level of 720 mg/kg in a volume of 0.01 ml/gm of mouse weight. Twenty-four hours later, on day 6, cells were washed from the peritoneal cavities of both treated and NaCl-injected mice, and cell numbers were compared.
Five days after the intraperitoneal inoculation of B6D2F1 /J mice with one hundred thousand cells of leukemia L1210, an average of 255 million cells were recovered from the abdominal compartments of untreated mice. Twenty-four hours later, this value had increased by 52 percent for NaCl-injected mice, but had declined by 90 percent for animals that received 720 mg/kg of nitrara-C and 77% for ara-C treated group.

A further data set concerns CCRF-CEM (T-cells). Briefly: Cytotoxicity (cell growth inhibition), CCRF-CEM. The class given is cell-based. The note with it: Homo sapiens, read-out: IC50 (molar conc. for 50% inhib. of cell growth).
For another data set, the system named is MOLT-4 (T-cells). The experiment in a line: Cytotoxicity (cell growth inhibition), MOLT-4. The class given is cell-based. The note with it: Homo sapiens, read-out: IC50 (molar conc. for 50% inhib. of cell growth).
The next data set deals with RPMI-6410 (B-cells). The experiment in a line: Cytotoxicity (cell growth inhibition), RPMI-6410. The class given is cell-based. As to conditions: Homo sapiens, read-out: IC50 (molar conc. for 50% inhib. of cell growth).
A further data set relates to CCFR-CEM/ara-C (mutant). The experiment in a line: Cytotoxicity (cell growth inhibition), ara-C resistant mutant. It counts as cell-based. The note with it: Homo sapiens, read-out: IC50 (molar conc. for 50% inhib. of cell growth).
A further data set relates to human leukemia cells. Briefly: Cytotoxicity to human leukemia cells in culture, summary. The procedure: Experiments were also carried out to determine the growth potential of cultured human lymphoblasts in the presence of nitrara-C in tissue culture.
The test system of data set [1] is experimental tumors in animals. As to conditions: cited from earlier work.
A further data set deals with L1210. The experiment in a line: Life-span of mice inoculated i.p. with L1210 (3×10^6 cells), treatment started 24 h after implantation. The class given is in vivo, murine (B6D2F1/J female mice). The note with it: for indefinite cures (60 day survivors): 5 mice per group; for extension of lifespan: 2000 mg/kg. The procedure:
In a similar further study, B6D2F1 /J female mice were inoculated i.p. with 3×10^6 cells of L1210. Treatment was started 24 hours after tumor implantation. Nitrara-C hydrochloride treatment regimens were as follows:
Injections of 0.9 percent saline were used as a control.
On regimen 1, statistically significant increase in life-span was obtained with dosages higher than 34 mg/kg.

The nature of data set [2]: Effect of cytidine deaminase on cytotoxicity for CCRF-CEM cells. As to conditions: cytidine deaminase.
The next data set concerns CCRF-CEM cells. The data set is described as above. As to conditions: Homo sapiens, CCRF-CEM.
The mark [3] stands for this setting: human leukemia cells in culture.

`Nc1ccn([C@H]2C[C@H](O)[C@@H](CO)O2)c(=O)n1` [2'-Deoxycytidine, reference compound]: the “Relative initial rate of deamination” value at Cytidine deaminase stood at 39.
For `Nc1ccn([C@@H]2O[C@H](CO)[C@@H](O)[C@@H]2O)c(=O)n1` [Ara-C, 1-β-D-arabinofuranosylcytosine], the “decline in number of L1210 cells recovered from abdominal compartment” value in the data set with murine leukemia L1210 is on record as 77%. Also, the IC50 in the data set with CCRF-CEM (T-cells) (CCRF-CEM, 48 h) amounted to 0.02 µM; with MOLT-4 (T-cells) (MOLT-4, 48 h) it was 0.01 µM; in the data set on RPMI-6410 (B-cells) (RPMI 6410, 48 h) it was 0.06 µM; in the data set with CCFR-CEM/ara-C (mutant) (48 h) it was 100 µM. Besides, in the data set with human leukemia cells, the “dependence of cytotoxicity on phosphorylation (in words)” value is reported as “cytotoxicity depends on phosphorylation”. In data set [1], the “activity in experimental tumors (in words)” value is “active in several experimental tumors in animals”.
As for `Cl.Nc1ccn([C@@H]2O[C@H](CO)[C@@H](O)[C@@H]2O[N+](=O)[O-])c(=O)n1` [Nitrara-C hydrochloride, 1-(2-O-Nitro-β-D-arabinofuranosyl)cytosine hydrochloride], the minimal effective dose with L1210 (Mus musculus, L1210, ip, 168 h, regimen 1 (daily for 7 days), read-out: dosages giving statistically significant increase in life-span) is > 34 mg/kg. Moreover, in the data set on L1210 (any of the above regimens at the highest dosages), the toxic deaths entry is reported as “Toxic deaths were not seen”. Further, the extension of life-span in the data set with L1210 (regimen 1 (daily for 7 days), 208 mg/kg) is listed as 162%. Besides, the “indefinite cures (60 day survivors)” value was determined as 3 survivors in the data set on L1210 (regimen 1 (daily for 7 days), 259 mg/kg); 1 survivor in the data set on L1210 (regimen 1 (daily for 7 days), 346 mg/kg); 2 survivors in the data set on L1210 (regimen 1 (daily for 7 days), 432 mg/kg); 1 survivor with L1210 (regimen 1 (daily for 7 days), 720 mg/kg). Besides, the extension of lifespan with L1210 (regimen 2 (day 1 only)) is recorded as 57%; in the data set with L1210 (regimen 3 (days 1 and 4 only)) it was 120%; with L1210 (regimen 4 (days 1, 4 and 7)), 197%.
For the compound `Nc1ccn([C@@H]2O[C@H](CO)[C@@H](O)[C@@H]2O[N+](=O)[O-])c(=O)n1` [Nitrara-C, 1-(2-O-nitro-β-D-arabinofuranosyl)cytosine], the “decline in number of L1210 cells recovered from abdominal compartment” value with murine leukemia L1210 is 90%. Also, the IC50 turned out to be 0.6 µM in the data set on CCRF-CEM (T-cells) (CCRF-CEM (T-cells), 48 hours); 0.4 µM in the data set with MOLT-4 (T-cells) (MOLT-4 (T-cells), 48 hours); 6 µM with RPMI-6410 (B-cells) (RPMI-6410 (B-cells), 48 hours); 1000 µM in the data set with CCFR-CEM/ara-C (mutant) (CCFR-CEM/ara-C (mutant), deficient in deoxycytidine kinase, 48 hours); 0.6 µM in the data set on CCRF-CEM cells (read-out: IC50 (molar conc. for 50% inhib. of cell growth), with cytidine deaminase); 0.6 µM in the data set on CCRF-CEM cells (read-out: IC50 (molar conc. for 50% inhib. of cell growth), without cytidine deaminase). For the same compound, the “deamination by cytidine deaminase (in words)” value at Cytidine deaminase was “not deaminated by cytidine deaminase”. On Cytidine deaminase, the “Relative initial rate of deamination” value is < 1. The “dependence of cytotoxicity on phosphorylation (in words)” value in the data set with human leukemia cells is listed as “cytotoxicity depends on phosphorylation”. The “activity compared to ara-C (in words)” value with human leukemia cells (setting [3]) is “compares favorably to that of ara-C”. For the same compound, the “cytotoxicity (in words)” value in the data set on human leukemia cells (setting [3]) is “highly cytotoxic to various human leukemia cells in culture”. Besides, the metabolised in [2] is < 1%.
